In patent US20240391940A1, “FUSED RING-CONTAINING COMPOUND, APPLICATION THEREOF, AND COMPOSITION CONTAINING SAME” (GenEros Biopharma Ltd., priority 2020, published 2024):

Columns and labels:
[1] = system: STAT5 Y694 phosphorylation; test: HTRF experiment: STAT5 Y694 phosphorylation in Hela cells; format: cell-based, Human; conditions: for Inhibition rate @10 μM: 10 μM compound, 2 h pretreatment, interferon stimulation 30 min
Protocol: A multifunctional microplate reader (TECAN; […] F PLEX); 96-well cell culture plates (Bioyong), HTRF 384-well low volume plates (Cisbio; Cat #66PL384025); Human interferon 0 (IFN-0) (GenScript; Cat #P01574), STAT5 phospho-Y694 kits (Cisbio; Cat #64AT5PEG).
Hela cells (American Type Culture Collection (ATCC), CCL-2) were cultured in a 96-well plate with DMEM containing 5% fetal bovine serum at a density of 3×10^4 cells/well. The cells were incubated overnight in a 37° C., 5% carbon dioxide humidified incubator. The next day, the original DMEM in the 96-well plate was blotted, and equal volumes of medium containing different concentrations of compounds (stock solutions of compounds prepared with dimethyl sulfoxide were diluted to desired concentrations in medium) were added for 2 h of pretreatment. The plate was left to stand in a 37° C. incubator. Human interferon 0 was then added to a final concentration of 10 nM for stimulation. The plate was gently shaken so the contents were well mixed, and the plate was then left to stand in a 37° C. incubator for 30 min.
The medium was removed, and the plate was washed once with an appropriate volume of PBS and then blotted dry. Then 1×lysis buffer was added at 40 μL/well, and the plate was left to stand at room temperature for 30 min (preparation of 1 mL of 1× lysis buffer: mixing well 740 μL of ddH2O with 250 μL of 4× lysis buffer and […]). After 30 min, the cells were repeatedly pipetted until the lysis buffer was not viscous (bubbles were avoided) so that sufficient lysis was achieved.
In an HTRF 384-well low volume plate, 4 μL of an antibody premix (containing two antibodies: Cryptate and d2: the two antibodies were each 20-fold diluted with detection buffer and were then mixed in equal volume to form the antibody premix) and 16 μL of the cell lysate were added to each well. The plate was sealed with a sealing membrane and then incubated overnight at room temperature in a dark place.
After the overnight incubation, signals at 665 nm and 620 nm were detected separately on a multifunctional microplate reader. The calculation formula for the STAT5 Y694 phosphorylation assay is: Ratio=[(signal 665 nm)/(signal 620 nm)]×10^4. A dimethyl sulfoxide-only treatment group was set as a negative control (RatioNegative), and an interferon 0 stimulation group without compound addition was set as a positive control (RatioPositive). The inhibition rates of different samples against STAT5 Y694 phosphorylation were normalized: inhibition rate=[1−(RatioExperiment−RatioNegative)/(RatioPositive−RatioNegative)]×100.

female BALB/c mice = test: Toxicity, multiple administrations for 14 days in mice; format: in vivo; design: Changes in body weight of the mice in the toxicity test (group mean) / Changes in body weight of the mice in the toxicity test: unit not given here
Protocol: • Part I: Single administration. A total of 6 mice were used. They were randomly divided into 2 groups: the vehicle control and GEN1-284s (1000 mg/kg), dosed once by oral gavage and observed for 6 days, and changes in body weight and activities were recorded. • Part II: Multiple administrations. This experiment used a total of 6 mice. They were divided into two groups of 3: a GEN1-284s-1000 mg/kg group and a GEN1-284s-300 mg/kg group, and were intragastrically given GEN1-284s for 14 consecutive days at 200 μL each. The state and survival of the mice were observed every day, and their body weights were recorded. Two mice died 2 h after GEN1-284s-1000 mg/kg administration. The dose was changed to 600 mg/kg, and the experiment was continued.
This experiment used a total of 6 mice. They were divided into two groups of 3: a GEN1-284s-1000 mg/kg group and a GEN1-284s-300 mg/kg group, and were intragastrically given GEN1-284s for 14 consecutive days at 200 μL each. The state and survival of the mice were observed every day, and their body weights were recorded. Two mice died 2 h after GEN1-284s-1000 mg/kg administration. The dose was changed to 600 mg/kg, and the experiment was continued.
Each mouse was intragastrically administered GEN1-284s for 14 consecutive days in a volume of 200 μL/20 g. The state and survival of the mice were observed every day, and their body weights were recorded. Two mice died 2 h after GEN1-284s-1000 mg/kg administration. The dose was changed to 600 mg/kg, and the experiment was continued.
Changes in body weight and survival of the mice were observed during 6 days after the single administration, and changes in body weight and the survival of the mice were observed during 14 consecutive days of high-dose GEN1-284s administration.

SMILES	IC50 [1]	Inhibition rate @10 μM [1]	further results
O=C(Cc1ccc2nccc(Cl)c2c1)N1CCC(n2c(=O)[nH]c3cccc(C(F)(F)F)c32)CC1 [GEN1-301, 1-(1-(2-(4-Chloroquinolin-6-yl)acetyl)piperidin-4-yl)-7-(trifluoromethyl)-1,3-dihydro-2H-benzo[d]imidazol-2-one]	8.8 µM	80.70%	–
O=C(Cc1ccc2[nH]ccc2c1)N1CCC(n2c(=O)[nH]c3ccccc32)CC1 [GEN1-077, 3-[1-[2-(1H-Indol-5-yl)acetyl]-4-piperidinyl]-1H-benzimidazol-2-one]	–	34.25%	–
O=C(Cc1ccc2ncccc2c1)N1CCC(n2c(=O)n(COP(=O)([O-])[O-])c3cccc(C(F)(F)F)c32)CC1.[Na+].[Na+] [Compound 284s]	–	–	Changes in body weight of the mice in the toxicity test (group mean) (female BALB/c mice; 300 mg/kg P.O daily, Day 1): 16.97; Changes in body weight of the mice in the toxicity test (group mean) (female BALB/c mice; 300 mg/kg P.O daily, Day 2): 16.93; Changes in body weight of the mice in the toxicity test (group mean) (female BALB/c mice; 300 mg/kg P.O daily, Day 3): 16.87; Changes in body weight of the mice in the toxicity test (group mean) (female BALB/c mice; 300 mg/kg P.O daily, Day 4): 17.17; Changes in body weight of the mice in the toxicity test (group mean) (female BALB/c mice; 300 mg/kg P.O daily, Day 5): 17.17; Changes in body weight of the mice in the toxicity test (group mean) (female BALB/c mice; 300 mg/kg P.O daily, Day 6): 17.23; Changes in body weight of the mice in the toxicity test (group mean) (female BALB/c mice; 300 mg/kg P.O daily, Day 8): 17.47; Changes in body weight of the mice in the toxicity test (group mean) (female BALB/c mice; 300 mg/kg P.O daily, Day 9): 17.17; Changes in body weight of the mice in the toxicity test (group mean) (female BALB/c mice; 300 mg/kg P.O daily, Day 10): 17.1; Changes in body weight of the mice in the toxicity test (group mean) (female BALB/c mice; 300 mg/kg P.O daily, Day 11): 17.3; Changes in body weight of the mice in the toxicity test (group mean) (female BALB/c mice; 300 mg/kg P.O daily, Day 12): 17.23; Changes in body weight of the mice in the toxicity test (group mean) (female BALB/c mice; 300 mg/kg P.O daily, Day 13): 17.47; Changes in body weight of the mice in the toxicity test (group mean) (female BALB/c mice; 300 mg/kg P.O daily, Day 14): 17.47; Changes in body weight of the mice in the toxicity test (group mean) (female BALB/c mice; 600 mg/kg group (1000 mg/kg, changed to 600 mg/kg on day 2) P.O daily, Day 1): 17.37; Changes in body weight of the mice in the toxicity test (female BALB/c mice; 600 mg/kg group (1000 mg/kg, changed to 600 mg/kg on day 2) P.O daily, Day 2): 16.9; Changes in body weight of the mice in the toxicity test (female BALB/c mice; 600 mg/kg group (1000 mg/kg, changed to 600 mg/kg on day 2) P.O daily, Day 3): 17.3; Changes in body weight of the mice in the toxicity test (female BALB/c mice; 600 mg/kg group (1000 mg/kg, changed to 600 mg/kg on day 2) P.O daily, Day 4): 17.3
O=C(Cc1ccc2sccc2c1)N1CCC(n2c(=O)[nH]c3cccc(C(F)(F)F)c32)CC1 [GEN1-298, 1-(1-(2-(Benzo[b]thiophen-5-yl)acetyl)piperidin-4-yl)-7-(trifluoromethyl)-1,3-dihydro-2H-benzo[d]imidazol-2-one]	–	51.98%	–
O=C(Cc1ccc2ncccc2c1Cl)N1CCC(n2c(=O)[nH]c3cccc(C(F)(F)F)c32)CC1 [GEN1-306, 1-(1-(2-(5-Chloroquinolin-6-yl)acetyl)piperidin-4-yl)-7-(trifluoromethyl)-1,3-dihydro-2H-benzo[d]imidazol-2-one]	–	95.64%	–
O=C(Cc1ccc2ncccc2c1)N1CCC(n2c(=O)n(COP(=O)(O)O)c3cccc(C(F)(F)F)c32)CC1 [GEN1-284, (2-Oxo-3-(1-(2-(quinolin-6-yl)acetyl)piperidin-4-yl)-4-(trifluoromethyl)-2,3-dihydro-1H-benzo[d]imidazol-1-yl)methyl dihydrogen phosphate]	3.9 µM	80.21%	–
O=C(Cc1ccc2nccnc2c1)N1CCC(n2c(=O)[nH]c3cccc(C(F)(F)F)c32)CC1 [GEN1-140, 1-(1-(2-(Quinoxalin-6-yl)acetyl)piperidin-4-yl)-7-(trifluoromethyl)-1,3-dihydro-2H-benzo[d]imidazol-2-one]	–	53.79%	–
O=C(Cc1ccc2nc(Cl)ccc2c1)N1CCC(n2c(=O)[nH]c3cccc(C(F)(F)F)c32)CC1 [GEN1-302, 1-(1-(2-(2-Chloroquinolin-6-yl)acetyl)piperidin-4-yl)-7-(trifluoromethyl)-1,3-dihydro-2H-benzo[d]imidazol-2-one]	7 µM	80.37%	–
N#Cc1ccnc2ccc(CC(=O)N3CCC(n4c(=O)[nH]c5cccc(C(F)(F)F)c54)CC3)cc12 [GEN1-304, 6-(2-Oxo-2-(4-(2-oxo-7-(trifluoromethyl)-2,3-dihydro-1H-benzo[d]imidazol-1-yl)piperidin-1-yl)ethyl)quinoline-4-carbonitrile]	–	40.76%	–
Cc1cc(CC(=O)N2CCC(n3c(=O)[nH]c4cccc(C(F)(F)F)c43)CC2)cc2cccnc12 [GEN1-303, 1-(1-(2-(8-Methylquinolin-6-yl)acetyl)piperidin-4-yl)-7-(trifluoromethyl)-1,3-dihydro-2H-benzo[d]imidazol-2-one]	5.5 µM	91.91%	–
COc1ccc2cc(CC(=O)N3CCC(n4c(=O)[nH]c5cccc(C(F)(F)F)c54)CC3)ccc2n1 [GEN1-305]	–	63.05%	–
CN(C)c1ccc(CC(=O)N2CCC(n3c(=O)[nH]c4cccc(C(F)(F)F)c43)CC2)cc1 [GEN1-118, 1-(1-(2-(4-(Dimethylamino)phenyl)acetyl)piperidin-4-yl)-7-(trifluoromethyl)-1,3-dihydro-2H-benzo[d]imidazol-2-one]	–	27.57%	–
O=C(Cc1c[nH]c2ccccc12)N1CCC(n2c(=O)[nH]c3cccc(C(F)(F)F)c32)CC1 [GEN1-169, reference compound]	–	13.47%	–
Cc1ccc2cc(CC(=O)N3CCC(n4c(=O)[nH]c5cccc(C(F)(F)F)c54)CC3)ccc2n1 [GEN1-300]	7.6 µM	72.83%	–
O=C(Cc1ccc2ncc(C(F)(F)F)cc2c1)N1CCC(n2c(=O)[nH]c3cccc(C(F)(F)F)c32)CC1 [GEN1-312]	–	55.50%	–
